Key:
human TLR2 = biological target: T1, human TLR2 (Homo sapiens, UniProt O60603); test: TLR ligand screening: NF-κB SEAP reporter in HEK293 cells expressing TLR2; type: cell-based; conditions: one concentration: Guanosine 100 uM, NTR001 10 uM, Inosine 100 uM; HEK293; triplicate; FIG. 2
T1 construct: expressed in transfected cells; host or cells: HEK293
Protocol: (§1) Toll-Like Receptor (TLR) Ligand Screening: In-vitro Activity of the PNPi, Guanosine and Inosine on Seven Different Human TLRs (TLR2, 3, 4, 5, 7, 8 and 9) as a Potential Agonist.
(§2) Method: TLR stimulation is tested by assessing NF-KB activation in HEK293 cells expressing a given TLR. The Secreted Embryonic Alkaline Phosphatase (SEAP) reporter is under the control of a promoter inducible by the transcription factor NF-κB.
(§3) This reporter gene allows the monitoring of signaling through the TLR, based on the activation of NF-κB. The compounds are evaluated at one concentration and compared to control ligands. This step is performed in triplicate.

human TLR8 = biological target: T2, human TLR8 (Homo sapiens, UniProt Q9NR97); test: TLR ligand screening: NF-κB SEAP reporter in HEK293 cells expressing TLR8; type: cell-based; conditions: one concentration: NTR001 10 uM, Inosine 100 uM, triplicate, FIG. 2
T2 construct: expressed in transfected cells; host or cells: HEK293
T2 sequence (Q9NR97 27-1041): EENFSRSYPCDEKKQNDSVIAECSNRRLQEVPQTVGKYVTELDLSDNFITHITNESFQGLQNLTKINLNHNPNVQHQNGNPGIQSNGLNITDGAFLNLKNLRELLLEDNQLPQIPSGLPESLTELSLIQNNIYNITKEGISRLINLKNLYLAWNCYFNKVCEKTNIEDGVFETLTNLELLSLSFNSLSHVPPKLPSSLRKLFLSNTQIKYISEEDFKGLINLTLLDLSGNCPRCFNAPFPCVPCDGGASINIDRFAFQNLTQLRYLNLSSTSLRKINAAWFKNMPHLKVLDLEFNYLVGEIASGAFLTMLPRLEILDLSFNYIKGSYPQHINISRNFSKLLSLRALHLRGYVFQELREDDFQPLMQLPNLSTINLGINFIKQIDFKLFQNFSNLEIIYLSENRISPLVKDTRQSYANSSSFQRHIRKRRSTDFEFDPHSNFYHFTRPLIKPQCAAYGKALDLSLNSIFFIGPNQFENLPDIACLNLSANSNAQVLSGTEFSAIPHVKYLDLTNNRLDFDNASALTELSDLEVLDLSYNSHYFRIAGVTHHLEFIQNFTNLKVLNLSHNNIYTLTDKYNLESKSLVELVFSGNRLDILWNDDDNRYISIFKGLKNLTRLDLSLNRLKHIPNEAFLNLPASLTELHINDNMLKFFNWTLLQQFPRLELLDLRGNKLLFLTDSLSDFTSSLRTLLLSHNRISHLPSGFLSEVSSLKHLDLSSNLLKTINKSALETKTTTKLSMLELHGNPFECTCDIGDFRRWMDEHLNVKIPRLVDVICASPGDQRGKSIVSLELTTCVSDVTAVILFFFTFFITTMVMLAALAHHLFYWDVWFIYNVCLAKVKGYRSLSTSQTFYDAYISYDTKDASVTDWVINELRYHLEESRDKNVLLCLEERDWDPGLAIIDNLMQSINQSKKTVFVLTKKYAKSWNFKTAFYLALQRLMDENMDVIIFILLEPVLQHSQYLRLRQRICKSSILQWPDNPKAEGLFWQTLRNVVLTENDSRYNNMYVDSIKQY
Protocol: as §1, §2, §3

human TLR7 = biological target: T3, human TLR7 (Homo sapiens, UniProt Q9NYK1); test: TLR ligand screening: NF-κB SEAP reporter in HEK293 cells expressing TLR7; type: cell-based; conditions: one concentration: NTR001 10 uM, Inosine 100 uM, triplicate, FIG. 2
T3 construct: expressed in transfected cells; host or cells: HEK293
T3 sequence (Q9NYK1 27-1049): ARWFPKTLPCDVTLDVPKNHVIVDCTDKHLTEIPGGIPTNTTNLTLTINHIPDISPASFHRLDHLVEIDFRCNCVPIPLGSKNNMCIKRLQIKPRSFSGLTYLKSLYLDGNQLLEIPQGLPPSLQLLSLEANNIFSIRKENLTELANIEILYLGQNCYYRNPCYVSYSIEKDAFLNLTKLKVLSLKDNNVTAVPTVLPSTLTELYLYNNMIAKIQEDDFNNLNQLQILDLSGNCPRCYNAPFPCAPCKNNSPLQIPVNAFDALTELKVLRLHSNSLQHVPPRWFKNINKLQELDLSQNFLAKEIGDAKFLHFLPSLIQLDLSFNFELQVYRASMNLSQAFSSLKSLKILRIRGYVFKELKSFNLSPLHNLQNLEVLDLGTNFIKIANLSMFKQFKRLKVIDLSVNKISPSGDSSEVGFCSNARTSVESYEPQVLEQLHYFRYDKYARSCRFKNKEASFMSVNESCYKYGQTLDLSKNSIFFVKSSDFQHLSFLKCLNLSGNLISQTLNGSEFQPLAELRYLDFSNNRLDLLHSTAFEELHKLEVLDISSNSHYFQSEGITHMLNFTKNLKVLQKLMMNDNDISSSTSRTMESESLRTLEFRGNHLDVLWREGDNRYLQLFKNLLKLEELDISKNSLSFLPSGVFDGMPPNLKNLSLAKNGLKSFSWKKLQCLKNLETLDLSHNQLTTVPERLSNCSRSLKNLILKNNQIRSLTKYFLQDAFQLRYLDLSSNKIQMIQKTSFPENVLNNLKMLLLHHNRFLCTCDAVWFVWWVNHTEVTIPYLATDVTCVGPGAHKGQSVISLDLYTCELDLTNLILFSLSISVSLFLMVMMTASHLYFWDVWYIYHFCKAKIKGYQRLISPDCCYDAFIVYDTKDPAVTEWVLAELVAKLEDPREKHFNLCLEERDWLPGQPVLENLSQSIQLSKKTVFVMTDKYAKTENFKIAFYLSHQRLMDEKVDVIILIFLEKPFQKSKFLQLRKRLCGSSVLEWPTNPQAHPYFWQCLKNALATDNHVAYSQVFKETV
Protocol: as §1, §2, §3

tetanus toxoid vaccine = test: PNPi as adjuvant in tetanus toxoid vaccine efficacy study (tetanus toxoid mouse model); type: in vivo, mice; conditions: compared to vehicle treated group
Protocol: This Example Evaluates PNPi as an Adjuvant in Tetanus Toxoid Vaccine Efficacy Study.
Method: Tetanus toxoid (TT) was used to vaccinate mice thrice, two weeks apart. Mice were treated by oral administration of compounds NTR001 and NTR002 and serum was collected at various time points for antibody titer and interferon-g analysis. Mice in Groups 2-6 (Table 2) are vaccinated subcutaneously with 0.1 ml tetanus toxoid vaccine on DAYS 0, 14 and 28. Mice in Group 1 (Table 1) received no vaccine. Antibody titers for DAYS 38 are determined by ELISA using tetanus toxoid coated microtiter plates and anti-mouse conjugate. Sera from DAY 30 are assayed by ELISA for interferon-g.

[1] = system: L. monocytogenes (ATCC Strain35152, hemolytic substrain); conditions: 30 mg/kg PO or IP, or 2 mg/kg drinking water; 1×10^6 CFU i.v.; FIGS. 7 and 9

T1 sequence (O60603 21-784): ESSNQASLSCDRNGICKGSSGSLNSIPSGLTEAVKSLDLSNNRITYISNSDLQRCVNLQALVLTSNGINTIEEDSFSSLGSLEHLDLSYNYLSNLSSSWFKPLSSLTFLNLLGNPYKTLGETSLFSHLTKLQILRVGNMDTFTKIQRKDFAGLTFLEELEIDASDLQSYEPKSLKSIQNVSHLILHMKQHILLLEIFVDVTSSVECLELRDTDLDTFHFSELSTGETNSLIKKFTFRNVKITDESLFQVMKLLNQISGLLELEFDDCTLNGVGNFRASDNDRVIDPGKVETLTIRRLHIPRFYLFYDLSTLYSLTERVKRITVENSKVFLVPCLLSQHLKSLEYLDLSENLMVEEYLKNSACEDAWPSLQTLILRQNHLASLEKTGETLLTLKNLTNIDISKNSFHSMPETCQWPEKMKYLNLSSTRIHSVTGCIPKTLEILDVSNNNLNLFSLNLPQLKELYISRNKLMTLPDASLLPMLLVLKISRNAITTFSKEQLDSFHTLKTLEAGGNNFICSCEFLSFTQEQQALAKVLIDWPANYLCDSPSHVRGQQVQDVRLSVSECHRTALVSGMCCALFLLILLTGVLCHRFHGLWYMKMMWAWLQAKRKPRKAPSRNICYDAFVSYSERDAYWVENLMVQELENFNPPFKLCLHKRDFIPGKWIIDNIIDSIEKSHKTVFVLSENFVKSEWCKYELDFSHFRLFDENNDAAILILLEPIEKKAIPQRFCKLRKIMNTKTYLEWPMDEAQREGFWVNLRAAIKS

Structure (SMILES) | stimulatory effect on human TLR2 (NF-κB activation) (human TLR2) | stimulatory effect on human TLR8 (NF-κB activation) (human TLR8) | stimulatory effect on human TLR7 (NF-κB activation) (human TLR7) | serum interferon-g levels (tetanus toxoid vaccine; day 30, ELISA, high dose group 60 mg/kg p.o., FIG. 4) | serum tetanus toxoid antibody titers (tetanus toxoid vaccine; day 38, ELISA, p.o. 30 mg/kg (6 days of treatment) and 60 mg/kg (3 days of treatment), FIG. 3) | weight loss [1]
OC[C@H]1O[C@@H](n2cnc3c(O)ncnc32)[C@H](O)[C@@H]1O [Inosine, inosine] | do not exhibit a stimulatory effect | do not exhibit a stimulatory effect | do not exhibit a stimulatory effect |  |  | 
O=c1[nH]cnc2c([C@@H]3N[C@H](CO)[C@@H](O)[C@H]3O)c[nH]c12 [NTR001, 7-[(2S,3S,4R,5R)-3,4-dihydroxy-5-(hydroxymethyl)-2-pyrrolidinyl]-1,5-dihyro-4-H-pyrrolo-[3,2-d]pyrimidin-4-one] | do not exhibit a stimulatory effect | do not exhibit a stimulatory effect | do not exhibit a stimulatory effect | elevated | significantly elevated | significant decrease

— US20170209447A1, “Use of PNP Inhibitor to Treat Relapse of Malignancy after Hematopoietic Stem Cell Transplant” (Nitor Therapeutics, priority 2014, published 2017)
